Experimental data taken from US20250195463A1, “ORGANOMETALLIC COMPLEX, CONTROLLED-RELEASE MULTI-FUNCTIONAL DRUG, PHARMACEUTICAL COMPOSITION, PROCESSES FOR THE PREPARATION THEREOF AND THEIR USE” (FACULDADE DE CIÊNCIAS DA UNIVERSIDADE DE LISBOA, priority 2022, published 2025).

What was measured:
[1] = Stability in organic medium (dimethyl sulfoxide) by UV-Vis spectroscopy; type: physicochemical; conditions: for Relative variation of the maximum absorbance of the π→π* transitions: band 289-300 nm (λmax in column head); for Relative variation of the maximum absorbance of the charge transfer bands: band 357-425 nm (λmax in column head)
Summary of the method: (§1)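 UV-Vis spectra (270-900 nm) were recorded at intervals from 0 to 24 h, at room temperature in the dark. Solvents were 100% DMSO, or 5% or 10% DMSO in DMEM depending on complex, at 7.0×10^-5 M to 3.0×10^-4 M.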

[2] = Stability in aqueous medium (dimethyl sulfoxide/Dulbecco's Modified Eagle Medium) by UV-Vis spectroscopy; type: physicochemical; conditions: 5% dimethyl sulfoxide/95% Dulbecco's Modified Eagle Medium; for Relative variation of the maximum absorbance of the π→π* transitions: band 292-296 nm (λmax in column head); for Relative variation of the maximum absorbance of the charge transfer bands: band 358-400 nm (λmax in column head)
Summary of the method: as §1

MDA-MB-231 (FGFR−) = assay: MTT cytotoxicity assay; conditions: MDA-MB-231
Summary of the method: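 Cells were exposed continuously for 48 h at 37 °C to compounds at 0.1 to 100 μM. In pH-controlled runs, RuPC1 stock was pre-incubated 48 h at pH 6.8 or 7.4, then tested at 0.1 to 50 μM. Viability was read by MTT (0.5 mg/mL, 3 h) absorbance at 570 nm versus untreated cells, with IC50 fitted.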

**Q.** Which results are given for `O=C(Cc1ccccc1)C1=C[CH]([Ru-]2([PH](c3ccccc3)(c3ccccc3)c3ccccc3)[n+]3ccccc3-c3cccc[n+]32)C=C1.O=S(=O)([O-])C(F)(F)F` (stereo not shown) [compound 9]?
**A.** Relative variation of the maximum absorbance of the π→π* transitions ([1]; time 0 h): 0.0%; Relative variation of the maximum absorbance of the charge transfer bands ([1]; time 0 h): 0.0%; Relative variation of the maximum absorbance of the π→π* transitions ([1]; time 0.25 h): 0.0%; Relative variation of the maximum absorbance of the charge transfer bands ([1]; time 0.25 h): 0.2%; Relative variation of the maximum absorbance of the π→π* transitions ([1]; time 0.5 h): −0.2%; Relative variation of the maximum absorbance of the charge transfer bands ([1]; time 0.5 h): 0.2%; Relative variation of the maximum absorbance of the π→π* transitions ([1]; time 0.75 h): −0.3%; Relative variation of the maximum absorbance of the charge transfer bands ([1]; time 0.75 h): 0.2%; Relative variation of the maximum absorbance of the π→π* transitions ([1]; time 1 h): −0.3%; Relative variation of the maximum absorbance of the charge transfer bands ([1]; time 1 h): 0.3%; Relative variation of the maximum absorbance of the π→π* transitions ([1]; time 2 h): −0.3%; Relative variation of the maximum absorbance of the charge transfer bands ([1]; time 2 h): 0.6%; Relative variation of the maximum absorbance of the π→π* transitions ([1]; time 3 h): −0.1%; Relative variation of the maximum absorbance of the charge transfer bands ([1]; time 3 h): 0.9%; Relative variation of the maximum absorbance of the π→π* transitions ([1]; time 4 h): −0.1%; Relative variation of the maximum absorbance of the charge transfer bands ([1]; time 4 h): 0.6%; Relative variation of the maximum absorbance of the π→π* transitions ([1]; time 5 h): −0.3%; Relative variation of the maximum absorbance of the charge transfer bands ([1]; time 5 h): 0.4%; Relative variation of the maximum absorbance of the π→π* transitions ([1]; time 6 h): −0.2%; Relative variation of the maximum absorbance of the charge transfer bands ([1]; time 6 h): 0.7%; Relative variation of the maximum absorbance of the π→π* transitions ([1]; time 24 h): −0.1%; Relative variation of the maximum absorbance of the charge transfer bands ([1]; time 24 h): 0.8%; Relative variation of the maximum absorbance of the π→π* transitions ([2]; time 0 h): 0.0%; Relative variation of the maximum absorbance of the charge transfer bands ([2]; time 0 h): 0.0%; Relative variation of the maximum absorbance of the π→π* transitions ([2]; time 0.25 h): −0.2%; Relative variation of the maximum absorbance of the charge transfer bands ([2]; time 0.25 h): −0.7%; Relative variation of the maximum absorbance of the π→π* transitions ([2]; time 0.5 h): −0.3%; Relative variation of the maximum absorbance of the charge transfer bands ([2]; time 0.5 h): −0.8%; Relative variation of the maximum absorbance of the π→π* transitions ([2]; time 0.75 h): −0.5%; Relative variation of the maximum absorbance of the charge transfer bands ([2]; time 0.75 h): −0.9%; Relative variation of the maximum absorbance of the π→π* transitions ([2]; time 1 h): −0.3%; Relative variation of the maximum absorbance of the charge transfer bands ([2]; time 1 h): −1.0%; Relative variation of the maximum absorbance of the π→π* transitions ([2]; time 2 h): −0.2%; Relative variation of the maximum absorbance of the charge transfer bands ([2]; time 2 h): −1.2%; Relative variation of the maximum absorbance of the π→π* transitions ([2]; time 3 h): −0.3%; Relative variation of the maximum absorbance of the charge transfer bands ([2]; time 3 h): −1.4%; Relative variation of the maximum absorbance of the π→π* transitions ([2]; time 4 h): −0.4%; Relative variation of the maximum absorbance of the charge transfer bands ([2]; time 4 h): −1.5%; Relative variation of the maximum absorbance of the π→π* transitions ([2]; time 5 h): −0.2%; Relative variation of the maximum absorbance of the charge transfer bands ([2]; time 5 h): −1.6%; Relative variation of the maximum absorbance of the π→π* transitions ([2]; time 6 h): −0.5%; Relative variation of the maximum absorbance of the charge transfer bands ([2]; time 6 h): −1.7%; Relative variation of the maximum absorbance of the π→π* transitions ([2]; time 24 h): 4.5%; Relative variation of the maximum absorbance of the charge transfer bands ([2]; time 24 h): −0.2%; IC50 range in words (MDA-MB-231 (FGFR−); Example 24): sub-micromolar range; IC50 (MDA-MB-231 (FGFR−); read-out: Cytotoxic activity expressed as IC50, Table 5, 48 h, 37° C.): 310 nM
